The values below come from BindingDB's records for doi:10.1021/jm0301033 (Florida A and M University, 2004).

The first experiment deals with T1, D(4) dopamine receptor (Homo sapiens, UniProt P21917).
T1 sequence (P21917 whole entry): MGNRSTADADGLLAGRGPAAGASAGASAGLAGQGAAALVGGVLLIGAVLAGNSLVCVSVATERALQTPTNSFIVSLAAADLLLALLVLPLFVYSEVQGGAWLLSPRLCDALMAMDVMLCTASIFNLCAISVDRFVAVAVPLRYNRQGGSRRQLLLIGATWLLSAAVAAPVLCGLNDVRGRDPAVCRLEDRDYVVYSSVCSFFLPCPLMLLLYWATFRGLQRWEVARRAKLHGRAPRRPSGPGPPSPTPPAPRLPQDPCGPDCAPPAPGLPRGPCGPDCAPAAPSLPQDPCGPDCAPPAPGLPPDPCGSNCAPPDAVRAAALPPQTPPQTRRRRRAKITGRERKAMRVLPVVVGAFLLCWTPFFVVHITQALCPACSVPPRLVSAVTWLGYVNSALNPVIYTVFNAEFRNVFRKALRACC
Kind of experiment: Displacement of [3H]spiperone from human Dopamine receptor D4. In general terms: Loss of bound radioactivity is the signal in a displacement assay; it reports binding, not function.
A word on the pKi: it is the Ki on a negative log10 scale, so that one unit is a factor of ten. A lower pKi goes with a large Ki. With `O=C(CCCN1CCC(CO)(c2ccc(Cl)cc2)CC1)c1ccc(F)cc1`, the pKi was 7.11.

As for `O=C(CCCN1CCC(c2ccc(Cl)cc2)CC1)c1ccc(F)cc1`, the pKi was determined as 7.59.

`O=C(CCCN1CCC(CCO)(c2ccc(Cl)cc2)C1)c1ccc(F)cc1` (configuration not stated) yielded a pKi of 6.71.

Turning to `O=C(CCC[n+]1ccc(-c2ccc(Cl)cc2)cc1)c1ccc(F)cc1`, the pKi is under 6.

The compound `O=C(CCCN1CCC(C(O)c2ccc(Cl)cc2)CC1)c1ccc(F)cc1` (configuration not stated) showed a negative-log Ki (pKi) of 6.91.

`CN(CCCC(=O)c1ccc(F)cc1)CCCC(O)c1ccc(Cl)cc1` (configuration not stated) displayed a pKi of 6.72.

Turning to `O=C(CCCN1CCC(c2ccc(Cl)cc2)C1)c1ccc(F)cc1` (configuration not stated), the pKi was 7.82.

`O=C(CCCN1CCC(CO)(c2ccc(Cl)cc2)C1)c1ccc(F)cc1` (configuration not stated) displayed a pKi of 7.62.

With `O=C(CCCN1CCC(O)(Cc2ccc(Cl)cc2)CC1)c1ccc(F)cc1`, the pKi was determined as 7.23.

The next experiment deals with D(3) dopamine receptor (Homo sapiens, UniProt P35462). Kind of experiment: Displacement of [3H]7-OH-DPAT from human Dopamine receptor D3.
D(3) dopamine receptor, sequence (P35462 as listed by the source): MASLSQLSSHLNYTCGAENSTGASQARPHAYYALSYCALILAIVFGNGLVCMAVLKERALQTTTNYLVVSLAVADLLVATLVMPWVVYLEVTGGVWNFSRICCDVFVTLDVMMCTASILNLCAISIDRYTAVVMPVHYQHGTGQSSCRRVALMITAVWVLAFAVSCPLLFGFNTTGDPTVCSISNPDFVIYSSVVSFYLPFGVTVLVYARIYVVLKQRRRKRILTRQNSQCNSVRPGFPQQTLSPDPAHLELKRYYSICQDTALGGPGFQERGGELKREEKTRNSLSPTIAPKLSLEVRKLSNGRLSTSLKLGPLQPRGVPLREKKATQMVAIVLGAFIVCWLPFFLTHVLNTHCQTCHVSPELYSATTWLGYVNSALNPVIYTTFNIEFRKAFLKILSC
With `O=C(CCCN1CCC(CO)(c2ccc(Cl)cc2)CC1)c1ccc(F)cc1`, the pKi was found to be 6.96.

As to `O=C(CCCN1CCC(c2ccc(Cl)cc2)CC1)c1ccc(F)cc1`, the negative-log Ki (pKi) stood at 7.34.

For the compound `O=C(CCCN1CCC(CCO)(c2ccc(Cl)cc2)C1)c1ccc(F)cc1` (configuration not stated), the pKi turned out to be 7.49.

`O=C(CCC[n+]1ccc(-c2ccc(Cl)cc2)cc1)c1ccc(F)cc1`: the negative-log Ki (pKi) is under 6.

`O=C(CCCN1CCC(C(O)c2ccc(Cl)cc2)CC1)c1ccc(F)cc1` (configuration not stated) came in with a pKi of 7.11.

`CN(CCCC(=O)c1ccc(F)cc1)CCCC(O)c1ccc(Cl)cc1` (configuration not stated): the negative-log Ki (pKi) was 6.79.

For the compound `O=C(CCCN1CCC(CO)(c2ccc(Cl)cc2)C1)c1ccc(F)cc1` (configuration not stated), the pKi was determined as 6.78.

For the compound `O=C(CCCN1CCC(O)(Cc2ccc(Cl)cc2)CC1)c1ccc(F)cc1`, the pKi stood at 8.05.
